Consider six compounds from patent publication US12421257B2, “Compositions and methods for inhibiting group II intron RNA” (YALE UNIVERSITY, priority 2018, dated 2025).

In brackets after ≈: the same amount, converted by molar mass. Like-named read-outs stand apart in the source and are kept apart here.

Experiment [1] concerns COX1 aI5γ group II intron. The experiment is described as follows: Group II intron splicing in S. cerevisiae by RT-qPCR. Format: cell-based, Saccharomyces cerevisiae. The following applies: qRT-PCR, four hours with compound. The protocol:
A culture of S. cerevisiae was grown overnight with shaking in YPGE at 30° C. The saturated culture was then diluted and grown to mid-log phase in YPGE. Equal volumes of DMSO or compounds dissolved in DMSO were added to individual cultures (final concentrations of NED-2020: 64 μg/mL, APY-101: 32 μg/mL, APY-081: 32 μg/mL, APY-014: 64 μg/mL, Amphotericin B: 8 μg/mL), and incubated for four hours. Cells were harvested by centrifugation, washed with 500 μL ice-cold MilliQ water, centrifuged again, and snap-frozen in liquid nitrogen. Total RNA was isolated using E.Z.N.A. Yeast Purification Kit (Omega Bio-tek) according to manufacturer's procedures. The RNA was eluted in 50 μL of RNase/DNase-free water (ThermoFisher), followed by DNAse treatment with RQ1 DNase (Promega), for 1 hour at 37° C. Then it was mixed with 6 μl of 3M NaOAc and precipitated with 75% EtOH at −20° C. overnight. Then the RNA was reverse-transcribed with SuperScript III (ThermoFisher) following manufacturer's recommendations with 200 ng Random Hexamer Primers (ThermoFisher) and RNasin (ThermoFisher) in a 20 μl reaction. After reverse transcription, RNA was degraded by addition of 2N NaOH (2 μl) and incubation at 95° C. for 5 minutes. After cooling on ice for 5 minutes, 2 μl of 1M HCl and 2 μl of 3M NaOAc were added to the reaction mixture, and cDNA was precipitated with 75% EtOH at −20° C. for 30 minutes and resuspended in RNase/DNase-free water. The cDNA levels were quantified with real-time PCR using LightCycler 480 SYBR Green I (Roche) and a CFX384 Real-Time PCR Detection System (Bio-Rad) in triplicate. Relative levels of indicated RNA species from different conditions were normalized according to the ΔΔCT method via the following equation (Livak and Schmittgen, 2001, Methods, 25:402-408): ΔΔCT=[(CTCOX1total or unspliced−CTACT1or PGK1)test compound−(CTCOX1total or unspliced−CTACT1or PGK1)DMSO)].
The average and SEM of 2^-ΔΔCT is reported for each sample from three independent replicates. The following primer sets were used to amplify indicated targets: ACT1: […] (SEQ ID NO:1), […] (SEQ ID NO:2); PGK1: […] […]
On the technique in general: Quantitative PCR measures a nucleic acid by following its amplification.

For experiment [2], the system named is C. parapsilosis. The experiment is described as follows: MIC determination against C. parapsilosis. It counts as cell-based, Candida parapsilosis. The note with it: Lodderomyces parapsilosis; RPMI-1640, 35° C. or 37° C., turbidity after 24 and 48 hours. The essentials: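 Broth microdilution in RPMI-1640 with C. parapsilosis at 0.5×10^3 to 2.5×10^3 CFU/mL; test compounds 0.25-128 μg/ml final, 1% DMSO. Plates incubated at 35° C or 37° C, turbidity read visually at 24 and 48 h. MIC = lowest concentration without visible growth; triplicates.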

In experiment [3] the test system is S. cerevisiae. The experiment is described as follows: Yeast respiration assay in S. cerevisiae (MIC in YPD / YPGE). The following applies: Saccharomyces cerevisiae, 30° C. Format: cell-based, Saccharomyces cerevisiae. The protocol: Yeast respiration assays were conducted either in liquid YPD media (BD Bacto Yeast Extract, BD Bacto Peptone, 2% glucose) or in YPGE media (BD Bacto Yeast Extract, BD Bacto Peptone, 3% glycerol, 3% ethanol), essentially as described for the antifungal MIC assays (see below). To initiate these experiments, 100 μl of a fresh stock solution was prepared for each compound (3.2 mg/ml for Amphotericin B and 12.8 mg/ml for each test compounds) in DMSO. This concentrated stock solution was placed in the first well of 12-well row on a 96-well plate. The subsequent nine wells in this row contained 50 μl of DMSO for serial dilution. From the first well, 50 μl of the compound stock was withdrawn, transferred to the second well and mixed. This process was repeated from the second and subsequent wells, resulting in a 1:2 serial dilution of the stock into DMSO. Wells 11 and 12 contained DMSO only, to be used as no compound control and sterility control, with no inoculum added, respectively. After preparing this plate, 2.5 μl from each of the 12 wells was transferred to the wells of a separate 96-well plate, each of which contained 122.5 μl of YPD or YPGE medium, resulting in a set of serial dilutions of compound into growth media in a volume of 125 μl. Then 50 μl from each of these dilutions were transferred onto a third 96-well plate (the assay plate) and mixed with an equal volume (50 μl) of freshly prepared yeast inoculum in YPD or YPGE medium set to provide 0.5×10^3 to 2.5×10^3 colony forming units per 1 mL (wells 1-11), or YPD/YPGE alone (sterility control, well 12). The final compound concentration range of the assay was 0.25-128 μg/ml for test compounds and 0.0625-32 μg/ml for Amphotericin B. The final concentration of DMSO was 1%. Plates were incubated at 30° C. and visually analyzed for turbidity after 24 and 48 hours of incubation. The lowest compound concentration at which no growth was apparent is reported as the MIC (Table 1). All experiments were performed in triplicate.

Where [4] appears, read: YPD medium, read-out: MIC in YPD (glucose).
Where [5] appears, read: YPGE medium, read-out: MIC in YPGE (glycerol).

As usually defined, the MIC is the lowest concentration found to suppress growth. Consider `CC(=O)c1ccc(-c2ccc3oc(C(=O)c4cc(O)c(O)c(O)c4)cc3c2)cc1` [APY-101, 1-(4-{2-[(3,4,5-Trihydroxyphenyl)carbonyl]-1-benzofuran-5-yl}phenyl)ethan-1-one], for which, in experiment [1], the “Splicing of COX1 aI5γ group II intron in S. cerevisiae in vivo (in words)” value (shortened to “Splicing of COX1 aI5γ group II intron”) was “inhibit splicing”. The minimum inhibitory concentration (MIC) is 2 to 4 µg/mL (≈ 5.15 to 10.3 µM) in experiment [2], more than 128 µg/mL in experiment [3] (setting [4]) and 32 µg/mL (≈ 82.4 µM) in experiment [3] (setting [5]).

As to `Br.CCN(CC)Cc1ccc(-c2ccc3oc(C(=O)c4cc(O)c(O)c(O)c4)cc3c2)cc1` [APY-090, 5-[(5-{4-[(Diethylamino)methyl]phenyl}-1-benzofuran-2-yl)carbonyl]benzene-1,2,3-triol hydrobromide], the MIC in experiment [2] was 4 to 8 µg/mL; in experiment [3] (setting [4]), more than 128 µg/mL; in experiment [3] (setting [5]) it was 64 µg/mL.

Take `CCCCNS(=O)(=O)c1ccc(-c2ccc(-c3nc(-c4cc(O)c(O)c(O)c4)cs3)cc2)cc1` [APY-093, N-Butyl-4-{4-[4-(3,4,5-trihydroxyphenyl)-1,3-thiazol-2-yl]phenyl}benzene-1-sulfonamide]: the figures for the MIC in experiment [2], in experiment [3] (setting [4]) and in experiment [3] (setting [5]) were 32 to 64 µg/mL (≈ 64.4 to 129 µM), more than 128 µg/mL and more than 128 µg/mL, respectively.

For `O=C(c1cc(O)c(O)c(O)c1)c1cc2cc(-c3ccc(CO)cc3)ccc2o1` [APY-084, 5-({5-[4-(Hydroxymethyl)phenyl]-1-benzofuran-2-yl}carbonyl)benzene-1,2,3-triol], the minimal inhibitory concentration (MIC) in experiment [2] was 2 to 4 µg/mL (≈ 5.31 to 10.6 µM); in experiment [3] (setting [4]), more than 128 µg/mL; in experiment [3] (setting [5]) it was 16 to 32 µg/mL (≈ 42.5 to 85 µM).

As for `Cc1ccncc1-c1ccc2oc(C(=O)c3cc(O)c(O)c(O)c3)cc2c1` [APY-081, 5-{[5-(4-Methylpyridin-3-yl)-1-benzofuran-2-yl]carbonyl}benzene-1,2,3-triol], in experiment [1], the “Splicing of COX1 aI5γ group II intron” value is listed as “inhibit splicing”. For the same compound, the minimum inhibitory concentration (MIC) in experiment [2] is 4 to 8 µg/mL (≈ 11.1 to 22.1 µM); in experiment [3] (setting [4]), more than 128 µg/mL; in experiment [3] (setting [5]), 32 µg/mL (≈ 88.6 µM).

For the compound `O=C1/C(=C/c2cc(O)cc(O)c2)Oc2cc(O)cc(O)c21` [APY-014, (Z)-2-(3,5-Dihydroxybenzylidene)-4,6-dihydroxybenzofuran-3(2H)-one], the “Splicing of COX1 aI5γ group II intron” value in experiment [1] is “inactive”. Besides, the MIC in experiment [3] (setting [4]) and in experiment [3] (setting [5]) was more than 128 µg/mL in each case.
